Measurements from patent US9221827B2, “Antimicrobial compounds and methods of making and using the same” (Melinta Therapeutics, Inc., priority 2011, dated 2015).

System: Escherichia coli strain ATCC25922
Assay: standard microdilution assay to determine minimum inhibitory concentrations (MICs)
Assay type: cell-based
In short: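 MICs come from CLSI-guided microdilution in 100 μl, run alongside reference-strain performance standards. Values appear as "+" or "−" relative to 16 micrograms/ml, with "N/A" marking missing data.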

[1] = Escherichia coli strain ATCC25922, microdilution
[2] = Escherichia coli strain ATCC25922, standard microdilution assay

N=C(N)NCCCNCc1ccc(-n2cc3cc(-c4cc(CS(=O)(=O)CCN)ccc4F)[nH]c3nc2=O)cc1 [Compound 15]
E. coli ATCC25922 MIC [1]: + (a “+” indicates that the compound has an MIC value of 16 micrograms/ml or less)

Cc1c(Cl)cc(CCCCN)cc1-c1cc2cn(-c3ccc(CNCCCNC(=N)N)cc3)c(=O)nc2[nH]1 [Compound 108]
E. coli ATCC25922 MIC [1]: + (a “+” indicates that the compound has an MIC value of 16 micrograms/ml or less)

NCCCCc1cc(OC(F)(F)F)c(Cl)c(-c2cc3cn(-c4ccc(CNCCCN=C(N)N)cc4)c(=O)nc3[nH]2)c1 [Compound 65]
E. coli ATCC25922 MIC [1]: + (a “+” indicates that the compound has an MIC value of 16 micrograms/ml or less)

COC(=O)C(NCCCNC(=N)N)c1ccc(-n2cc3cc(-c4cc(CCCC(C)N)cc(C(F)(F)F)c4)[nH]c3nc2=O)cc1 (stereo not drawn) [Compound 496]
E. coli ATCC25922 MIC [1]: + (a “+” indicates that the compound has an MIC value of 16 micrograms/ml or less)

CC(NCCCNC(=N)N)c1ccc(-n2cc3cc(-c4cc(COC(C)C(C)N)cc(OC(F)(F)F)c4)[nH]c3nc2=O)cc1 (stereo not drawn) [Compound 419]
E. coli ATCC25922 MIC [2]: + (a “+” indicates that the compound has an MIC value of 16 micrograms/ml or less)

CC(N)CCCc1cc(SC(F)(F)F)c(Cl)c(-c2cc3cn(-c4ccc(C(C)NCCCNC(=N)N)cc4)c(=O)nc3[nH]2)c1 (stereo not drawn) [Compound 289]
E. coli ATCC25922 MIC [1]: + (a “+” indicates that the compound has an MIC value of 16 micrograms/ml or less)

N=C(N)NCCCNCc1ccc(-n2cc3cc(-c4cc(OC(F)(F)F)cc(C5CCC(CN)O5)c4)[nH]c3nc2=O)cc1 (stereo not drawn) [Compound 437]
E. coli ATCC25922 MIC [2]: + (a “+” indicates that the compound has an MIC value of 16 micrograms/ml or less)

N=C(N)NCCCNCc1ccc(-n2cc3cc(-c4cc(CCC5(CN)CCC5)cc(OC(F)(F)F)c4)[nH]c3nc2=O)cc1 [Compound 96]
E. coli ATCC25922 MIC [1]: + (a “+” indicates that the compound has an MIC value of 16 micrograms/ml or less)

C[C@@H](N)CCCc1cc(-c2cc3cn(-c4ccc(CNCCCNC(=N)N)cc4)c(=O)nc3[nH]2)cc(C(F)(F)F)c1 [Compound 249]
E. coli ATCC25922 MIC [1]: + (a “+” indicates that the compound has an MIC value of 16 micrograms/ml or less)

N=C(N)NCCCNCc1ccc(-c2c[nH]c(NC(=O)Nc3c(CO)cccc3OCCCN)nc2=O)cc1 [Compound 190]
E. coli ATCC25922 MIC [1]: − (a “−” indicates that the compound has an MIC value greater than 16 micrograms/ml)

CC(N)CCCc1cc(SC(F)(F)F)cc(-c2cc3cn(-c4ccc(C(CCO)NCCCNC(=N)N)cc4)c(=O)nc3[nH]2)c1 (stereo not drawn) [Compound 507]
E. coli ATCC25922 MIC [1]: + (a “+” indicates that the compound has an MIC value of 16 micrograms/ml or less)

N=C(N)NCCCNCc1ccc(-n2cc3cc(-c4cc(CC5CC(N)C5)cc(Cl)c4F)[nH]c3nc2=O)cc1 (stereo not drawn) [Compound 333]
E. coli ATCC25922 MIC [2]: + (a “+” indicates that the compound has an MIC value of 16 micrograms/ml or less)

CCCOc1cc(CCCCN)cc(-c2cc3cn(-c4ccc(CNCCCNC(=N)N)cc4)c(=O)nc3[nH]2)c1C(F)(F)F [Compound 251]
E. coli ATCC25922 MIC [1]: + (a “+” indicates that the compound has an MIC value of 16 micrograms/ml or less)

N=C(N)NCCCNCc1ccc(-c2c[nH]c(NC(=O)Nc3cc(C(F)F)ccc3OCCCN)nc2=O)cc1 [Compound 188]
E. coli ATCC25922 MIC [1]: + (a “+” indicates that the compound has an MIC value of 16 micrograms/ml or less)

C=CC(NCCCNC(=N)N)c1ccc(-n2cc3cc(-c4cc(CCCC(C)N)cc(SC(F)(F)F)c4)[nH]c3nc2=O)cc1 (stereo not drawn) [Compound 502]
E. coli ATCC25922 MIC [1]: + (a “+” indicates that the compound has an MIC value of 16 micrograms/ml or less)

CC(N)CCCc1cc(Cl)c(F)c(-c2cc3cn(-c4ccc(C(C)NCCCNC(N)=NCC5(C)COC5)cc4)c(=O)nc3[nH]2)c1 (stereo not drawn) [Compound 347]
E. coli ATCC25922 MIC [2]: + (a “+” indicates that the compound has an MIC value of 16 micrograms/ml or less)

NCCC[C@@H](O)c1cc(OC(F)(F)F)cc(-c2cc3cn(-c4ccc(CNCCCN=C(N)N)cc4)c(=O)nc3[nH]2)c1 [Compound 76]
E. coli ATCC25922 MIC [1]: + (a “+” indicates that the compound has an MIC value of 16 micrograms/ml or less)

CC(N)CCCc1cc(SC(F)(F)F)c(Cl)c(-c2cc3cn(-c4ccc(CNCCCNC(=N)N)cc4)c(=O)nc3[nH]2)c1 (stereo not drawn) [Compound 288]
E. coli ATCC25922 MIC [1]: + (a “+” indicates that the compound has an MIC value of 16 micrograms/ml or less)

COc1cc(F)c(-c2cc3cn(-c4ccc(CNCCCN=C(N)N)cc4)c(=O)nc3[nH]2)cc1CCCCN [Compound 83]
E. coli ATCC25922 MIC [1]: + (a “+” indicates that the compound has an MIC value of 16 micrograms/ml or less)

C[C@H](NCCCNC(=N)N)c1ccc(-n2cc3cc(-c4cc(CC5CCC(N)CC5)cc(Cl)c4F)[nH]c3nc2=O)cc1 (stereo partly drawn) [Compound 449]
E. coli ATCC25922 MIC [2]: + (a “+” indicates that the compound has an MIC value of 16 micrograms/ml or less)

C[C@H](NCCCNC(=N)N)c1ccc(-n2cc3cc(-c4cc(CCCC(C)(C)N)cc(SC(F)(F)F)c4)[nH]c3nc2=O)cc1 [Compound 304]
E. coli ATCC25922 MIC [1]: + (a “+” indicates that the compound has an MIC value of 16 micrograms/ml or less)

N=C(N)NCCCNCc1ccc(-n2cc3cc(-c4cc(CCCN)cc(Cl)c4F)[nH]c3nc2=O)cc1 [Compound 228]
E. coli ATCC25922 MIC [1]: + (a “+” indicates that the compound has an MIC value of 16 micrograms/ml or less)

N=C(N)NCCCNCc1ccc(-n2cc3cc(-c4cc(CCCCN)cc(CF)c4C(F)(F)F)[nH]c3nc2=O)cc1 [Compound 244]
E. coli ATCC25922 MIC [1]: + (a “+” indicates that the compound has an MIC value of 16 micrograms/ml or less)

CC(N)CCCc1cc(SC(F)(F)F)cc(-c2cc3cn(-c4ccc(C(C)NCCCNC(=N)N)cc4)c(=O)nc3[nH]2)c1 (stereo not drawn) [Compound 231]
E. coli ATCC25922 MIC [1]: + (a “+” indicates that the compound has an MIC value of 16 micrograms/ml or less)

CC[C@H](NCCCNC(=N)N)c1ccc(-n2cc3cc(-c4cc(CCC[C@H](C)N)cc(SC(F)(F)F)c4)[nH]c3nc2=O)cc1 [Compound 407]
E. coli ATCC25922 MIC [2]: + (a “+” indicates that the compound has an MIC value of 16 micrograms/ml or less)

CC(N)CCCc1cc(-c2cc3cn(-c4ccc(C(CCO)NCCCNC(=N)N)cc4)c(=O)nc3[nH]2)cc(C(F)(F)F)c1 (stereo not drawn) [Compound 505]
E. coli ATCC25922 MIC [1]: + (a “+” indicates that the compound has an MIC value of 16 micrograms/ml or less)

C[C@@H](CNCc1ccc(-n2cc3cc(-c4cc(CCCCN)cc(OC(F)(F)F)c4)[nH]c3nc2=O)cc1)CNC(=N)N [Compound 35]
E. coli ATCC25922 MIC [1]: + (a “+” indicates that the compound has an MIC value of 16 micrograms/ml or less)

CC(C)c1cc(CCC2(CN)CCC2)cc(-c2cc3cn(-c4ccc(CNCCCNC(=N)N)cc4)c(=O)nc3[nH]2)c1 [Compound 103]
E. coli ATCC25922 MIC [1]: + (a “+” indicates that the compound has an MIC value of 16 micrograms/ml or less)

CC(C)c1cccc(OCCCN)c1NC(=O)Nc1nc(=O)c(-c2ccc(CNCCCNC(=N)N)cc2)c[nH]1 [Compound 186]
E. coli ATCC25922 MIC [1]: − (a “−” indicates that the compound has an MIC value greater than 16 micrograms/ml)

C[C@@H](CN)OCc1cc(SC(F)(F)F)cc(-c2cc3cn(-c4ccc(CNCCCNC(=N)N)cc4)c(=O)nc3[nH]2)c1 [Compound 326]
E. coli ATCC25922 MIC [1]: + (a “+” indicates that the compound has an MIC value of 16 micrograms/ml or less)

CC(N)CCCc1cc(SC(F)(F)F)cc(-c2cc3cn(-c4ccc(C5(NCCCNC(=N)N)CC5)cc4)c(=O)nc3[nH]2)c1 (stereo not drawn) [Compound 500]
E. coli ATCC25922 MIC [1]: + (a “+” indicates that the compound has an MIC value of 16 micrograms/ml or less)

Cc1cc(CCCCN)cc(-c2cc3cn(-c4ccc(CNCCCN=C(N)N)cc4)c(=O)nc3[nH]2)c1Cl [Compound 63]
E. coli ATCC25922 MIC [1]: + (a “+” indicates that the compound has an MIC value of 16 micrograms/ml or less)

CC(C)(N)CCCc1cc(SC(F)(F)F)cc(-c2cc3cn(-c4ccc(CNCCCNC(=N)N)cc4)c(=O)nc3[nH]2)c1 [Compound 303]
E. coli ATCC25922 MIC [1]: + (a “+” indicates that the compound has an MIC value of 16 micrograms/ml or less)

N=C(N)NCCCNCc1ccc(-n2cc3cc(-c4cc(C[S+]([O-])CCN)ccc4F)[nH]c3nc2=O)cc1 (stereo not drawn) [Compound 23]
E. coli ATCC25922 MIC [1]: + (a “+” indicates that the compound has an MIC value of 16 micrograms/ml or less)

N=C(N)NCCCNCc1ccc(-n2cc3cc(-c4cc(CCC(O)CN)cc(OC(F)(F)F)c4)[nH]c3nc2=O)cc1 (stereo not drawn) [Compound 240]
E. coli ATCC25922 MIC [1]: + (a “+” indicates that the compound has an MIC value of 16 micrograms/ml or less)

C=CC[C@H](NCCCNC(=N)N)c1ccc(-n2cc3cc(-c4cc(CCC[C@H](C)N)cc(Cl)c4F)[nH]c3nc2=O)cc1 [Compound 472]
E. coli ATCC25922 MIC [1]: + (a “+” indicates that the compound has an MIC value of 16 micrograms/ml or less)

COCCNC[C@@H]1C[C@@H](NC(=O)Nc2nc(=O)c(-c3ccc(CNCCCNC(=N)N)cc3)c[nH]2)CN1C[C@@H](C)CN [Compound 152]
E. coli ATCC25922 MIC [1]: + (a “+” indicates that the compound has an MIC value of 16 micrograms/ml or less)

CC(N)CCCc1cc(OC(F)F)c(F)c(-c2cc3cn(-c4ccc(C(C)NCCCNC(=N)N)cc4)c(=O)nc3[nH]2)c1 (stereo not drawn) [Compound 299]
E. coli ATCC25922 MIC [1]: + (a “+” indicates that the compound has an MIC value of 16 micrograms/ml or less)

CNC(C)CCCc1cc(SC(F)(F)F)cc(-c2cc3cn(-c4ccc(CNCCCNC(=N)N)cc4)c(=O)nc3[nH]2)c1 (stereo not drawn) [Compound 294]
E. coli ATCC25922 MIC [1]: + (a “+” indicates that the compound has an MIC value of 16 micrograms/ml or less)

CC(N)CCCc1cc(-c2cc3cn(-c4ccc(C(C)NCCCNC(=N)N)cc4)c(=O)nc3[nH]2)c(F)c(C(F)(F)F)c1 (stereo not drawn) [Compound 274]
E. coli ATCC25922 MIC [1]: + (a “+” indicates that the compound has an MIC value of 16 micrograms/ml or less)

N=C(N)NCCCNCc1ccc(-n2cc3cc(-c4cc(C(O)CCCN)cc(C(F)(F)F)c4)[nH]c3nc2=O)cc1 (stereo not drawn) [Compound 29]
E. coli ATCC25922 MIC [1]: + (a “+” indicates that the compound has an MIC value of 16 micrograms/ml or less)

COC(=O)C(NCCCNC(=N)N)c1ccc(-n2cc3cc(-c4cc(CCCC(C)N)cc(Cl)c4F)[nH]c3nc2=O)cc1 (stereo not drawn) [Compound 494]
E. coli ATCC25922 MIC [1]: + (a “+” indicates that the compound has an MIC value of 16 micrograms/ml or less)
